According to US20080161340A1, “Tetrahydroquinilinones, tetrahydronaphthyridones and derivatives thereof” (priority 2006, published 2008):
pEC50: −log10 of the molar value.

Key:
Assay type in all cases: cell-based
hCB1 = biological target: T1, hCB1 (Homo sapiens, UniProt P21554); assay: cAMP assay (LANCE TR-FRET) in CHO-K1 cells stably expressing hCB1, agonist/inverse agonist; details: intracellular cAMP, CHO-K1 hCB1 cells prestimulated with NKH-477, + agonist, − inverse agonist; for pEC50: read-out: hCB1 EC50 class
T1 construct: host or cells: CHO-K1
Experimental: (§1) The ability of compounds to act as agonists or inverse agonists at human CB2 and CB1 receptors (hCB2, hCB1, respectively) was determined by measuring changes in intracellular cAMP levels. Chinese Hamster Ovary (CHO-K1) cell lines stably expressing hCB2 (Genebank: X74328) or hCB1 (Genebank: X54937) were purchased from Euroscreen (Gosselies, Belgium).
(§2) Cell lines were grown in suspension in EX-CELL 302 CHO Serum-free medium (Sigma, cat #14324C) supplemented with 1% Fetal Bovine Serum, glutamine and non-essential amino-acids under 0.4 mg/mL G418 selection.
(§3) Receptor mediated responses were determined by measuring changes in intracellular cAMP using LANCE cAMP detection kit (cat #AD0264, PerkinElmer, Wellesley, Mass.) based on time-resolved fluorescence resonance energy transfer (TR-FRET). Changes in cAMP were determined in cells pre-incubated with IBMX (isobutyl methylxanthine) and prestimulated with NKH-477 (a water soluble forskolin derivative, cat #1603, Tocris, Ellisville, Mo.) to increase basal cAMP levels as detailed below.
(§4) On the day of the experiment, cells were spun at low speed for 5 min at room temperature. The supernatant was removed and cells were resuspended in stimulation buffer (Hanks Buffered Salt Solution/5 mM HEPES, containing 0.5 mM IBMX (cat #17018, Sigma) and 0.02% BSA (PerkinElmer, cat #CR84-100)). Cell clumps were removed by filtering through cell strainer 40 μm (BD Falcon, Discovery Labware, Bedford, Mass.) and diluted to 2×10^5 cells/mL. Antibody supplied with the LANCE cAMP immunoassay kit was then added according to the manufacturer's instructions. An aliquot of cells was taken for un-induced controls. To the remaining cells was added NKH-477 (a water soluble forskolin derivative, Tocris cat #1603) to a final concentration of 2-8 μM. Cells were then incubated for 30 min at room temperature prior to adding to Proxiplates containing test compounds (final DMSO concentration was less than 0.5%) with a Multidrop bulk dispenser, followed by a sixty minute incubation at room temperature. The response was stopped by addition of the detection mix supplied with the LANCE kit.
(§5) The reagents were allowed to equilibrate for three hours prior to reading on an Envision multi-mode detector (PerkinElmer). TR-FRET was measured using a 330-380 nm excitation filter, a 665 nm emission filter, dichroic mirror 380 nm and Z=1 mm.
(§6) Cyclic AMP concentrations in each well were back-calculated from a cAMP standard curve run concurrently during each assay. Each plate contained 16 wells of forskolin stimulated cells and 16 wells of forskolin plus CP55,940-treated. CP55,940-treated cells were treated with CP55,940 (Tocris cat. # 0949) at 1 μm and the maximal response was used as the full range (100%) standard. WIN55,212 (Tocris cat. # 1038) was used as an internal standard. Concentrations of cAMP were expressed as a percent of the difference of these two groups of wells. Concentration-response data including ECso (the concentration of compound producing 50% of the maximal response) and intrinsic activity (the percent maximal activation compared to full activation by CP55,940) were determined using a four-parameter non-linear regression algorithm (Xlfit equation 251, IDBS).

hCB2 = biological target: T2, hCB2 (Homo sapiens, UniProt P34972); assay: cAMP assay (LANCE TR-FRET) in CHO-K1 cells stably expressing hCB2, agonist/inverse agonist; details: intracellular cAMP, CHO-K1 hCB2 cells prestimulated with NKH-477; + agonist, − inverse agonist
T2 construct: host or cells: CHO-K1
Experimental: as §1, §2, §3, §4, §5, §6

rCB2 = biological target: T3, rCB2 (Rattus norvegicus, UniProt Q9QZN9); assay: cAMP assay, rCB2 in Table 7, agonist/inverse agonist; details: intracellular cAMP; + agonist, − inverse agonist
T3 sequence (Q9QZN9 1-360): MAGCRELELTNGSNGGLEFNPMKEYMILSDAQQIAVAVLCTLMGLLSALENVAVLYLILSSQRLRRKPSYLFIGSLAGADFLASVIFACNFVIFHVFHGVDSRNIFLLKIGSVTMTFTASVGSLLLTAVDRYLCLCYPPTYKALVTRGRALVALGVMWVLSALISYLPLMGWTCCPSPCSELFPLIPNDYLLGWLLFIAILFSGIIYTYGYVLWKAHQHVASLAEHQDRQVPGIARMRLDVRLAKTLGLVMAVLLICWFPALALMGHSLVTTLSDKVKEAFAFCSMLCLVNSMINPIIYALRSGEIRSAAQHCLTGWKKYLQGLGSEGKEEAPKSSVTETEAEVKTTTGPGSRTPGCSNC
Experimental: as §3, §4, §5, §6

T2 sequence (P34972 whole entry): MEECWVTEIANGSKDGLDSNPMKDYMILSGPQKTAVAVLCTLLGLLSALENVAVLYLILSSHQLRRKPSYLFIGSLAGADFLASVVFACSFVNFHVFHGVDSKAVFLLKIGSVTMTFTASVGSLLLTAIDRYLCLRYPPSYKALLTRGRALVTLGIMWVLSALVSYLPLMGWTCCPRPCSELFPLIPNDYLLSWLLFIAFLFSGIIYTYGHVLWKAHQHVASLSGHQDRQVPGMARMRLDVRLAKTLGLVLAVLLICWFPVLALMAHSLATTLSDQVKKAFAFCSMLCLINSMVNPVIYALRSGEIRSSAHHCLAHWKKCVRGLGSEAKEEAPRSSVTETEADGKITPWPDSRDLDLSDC
T1 sequence (P21554 whole entry): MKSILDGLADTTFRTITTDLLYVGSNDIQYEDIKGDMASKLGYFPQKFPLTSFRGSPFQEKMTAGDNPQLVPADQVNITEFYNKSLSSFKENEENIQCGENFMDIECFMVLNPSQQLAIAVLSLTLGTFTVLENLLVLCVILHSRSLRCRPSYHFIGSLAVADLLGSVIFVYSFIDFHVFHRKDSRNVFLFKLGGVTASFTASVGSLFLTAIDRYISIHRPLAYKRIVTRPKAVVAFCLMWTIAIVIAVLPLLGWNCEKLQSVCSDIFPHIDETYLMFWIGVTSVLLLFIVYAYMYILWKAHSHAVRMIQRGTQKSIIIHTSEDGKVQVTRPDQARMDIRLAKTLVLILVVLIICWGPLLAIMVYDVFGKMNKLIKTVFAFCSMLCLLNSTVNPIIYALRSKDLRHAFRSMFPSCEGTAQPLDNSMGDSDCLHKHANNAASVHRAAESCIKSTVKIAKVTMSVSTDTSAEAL

## COc1cccc(-c2cc3c(n(CC4CCC4)c2=O)CCCC3)c1 [Compound 16, 1-(cyclobutylmethyl)-3-(3-methoxyphenyl)-5,6,7,8-tetrahydroquinolin-2(1H)-one]
hCB1
  pEC50: < 5.00
hCB2
  hCB2 EC50 class: +B
rCB2
  rCB2 EC50 class: +B

## O=c1c(-c2ccccc2Cl)cc2c(n1CC1CCC1)CCCC2 [Compound 18, 3-(2-chlorophenyl)-1-(cyclobutylmethyl)-5,6,7,8-tetrahydroquinolin-2(1H)-one]
hCB1
  pEC50: < 5.00
hCB2
  hCB2 EC50 class: +B
rCB2
  rCB2 EC50 class: +B

## O=c1c(-c2ccc(Cl)cc2)cc2c(n1CC1CCC1)CCCC2 [Compound 19, 3-(4-chlorophenyl)-1-(cyclobutylmethyl)-5,6,7,8-tetrahydroquinolin-2(1H)-one]
hCB1
  pEC50: < 5.00
hCB2
  hCB2 EC50 class: +B
rCB2
  rCB2 EC50 class: +B

## O=c1c(-c2ccccc2C(F)(F)F)cc2c(n1CC1CCC1)CCCC2 [Compound 20, 1-(cyclobutylmethyl)-3-(2-(trifluoromethyl)phenyl)-5,6,7,8-tetrahydroquinolin-2(1H)-one]
hCB1
  pEC50: < 5.00
hCB2
  hCB2 EC50 class: +B
rCB2
  rCB2 EC50 class: +B

## O=c1c(-c2cccc(Cl)c2)cc2c(n1CC1CC1)CCCC2 [Compound 22, 3-(3-chlorophenyl)-1-(cyclopropylmethyl)-5,6,7,8-tetrahydroquinolin-2(1H)-one]
hCB1
  pEC50: < 5.00
hCB2
  hCB2 EC50 class: +B
rCB2
  rCB2 EC50 class: −B

## O=c1c(-c2ccc(C(F)(F)F)cc2)cc2c(n1CC1CCCCC1)CCCC2 [Compound 23, 1-(cyclohexylmethyl)-3-(4-(trifluoromethyl)phenyl)-5,6,7,8-tetrahydroquinolin-2(1H)-one]
hCB1
  hCB1 EC50 class: +B
hCB2
  hCB2 EC50 class: +B
rCB2
  rCB2 EC50 class: −B

## O=c1c(-c2cccc(Cl)c2)cc2c(n1CC1CCCCC1)CCCC2 [Compound 25, 3-(3-chlorophenyl)-1-(cyclohexylmethyl)-5,6,7,8-tetrahydroquinolm-2(1H)-one]
hCB1
  hCB1 EC50 class: +B
hCB2
  hCB2 EC50 class: +B
rCB2
  rCB2 EC50 class: +A

## Cn1cc(-c2cc3c(n(CC4CCC4)c2=O)CCCC3)cn1 [Compound 26, 1-(cyclobutylmethyl)-3-(1-methyl-1H-pyrazol-4-yl)-5,6,7,8-tetrahydroquinolin-2(1H)-one]
hCB1
  pEC50: < 5.00
hCB2
  hCB2 EC50 class: +B
rCB2
  rCB2 EC50 class: +A

## COc1ncc(-c2cc3c(n(CC4CCC4)c2=O)CCCC3)c(OC)n1 [Compound 29, 1-(cyclobutylmethyl)-3-(2,4-dimethoxypyrimidin-5-yl)-5,6,7,8-tetrahydroquinolin-2(1H)-one]
hCB1
  pEC50: < 5.00
hCB2
  hCB2 EC50 class: +B
rCB2
  rCB2 EC50 class: +A

## Cc1ccccc1Cc1cc2c(n(CC3CCC3)c1=O)CCCC2 [Compound 30, 1-(cyclobutylmethyl)-3-(2-methylbenzyl)-5,6,7,8-tetrahydroquinolin-2(1H)-one]
hCB1
  pEC50: < 5.00
hCB2
  hCB2 EC50 class: +A
rCB2
  rCB2 EC50 class: +A

## O=c1c(Cc2ccccc2F)cc2c(n1CC1CCC1)CCCC2 [Compound 31, 1-(cyclobutylmethyl)-3-(2-fluorobenzyl)-5,6,7,8-tetrahydroquinolin-2(1H)-one]
hCB1
  pEC50: < 5.00
hCB2
  hCB2 EC50 class: +A
rCB2
  rCB2 EC50 class: +A

## O=c1c(Cc2ccncc2)cc2c(n1CC1CCC1)CCCC2 [Compound 32, 1-(cyclobutylmethyl)-3-(pyridin-4-ylmethyl)-5,6,7,8-tetrahydroquinolin-2(1H)-one]
hCB1
  pEC50: < 5.00
hCB2
  hCB2 EC50 class: +B
rCB2
  rCB2 EC50 class: +B

## O=c1c(Cc2ccc(F)cc2)cc2c(n1CC1CCC1)CCCC2 [Compound 33, 1-(cyclobutylmethyl)-3-(4-fluorobenzyl)-5,6,7,8-tetrahydroquinolin-2(1H)-one]
hCB1
  pEC50: < 5.00
hCB2
  hCB2 EC50 class: +B
rCB2
  rCB2 EC50 class: +B

## O=c1c(Cc2ccccc2)cc2c(n1CC1CCC1)CCCC2 [Compound 34, 3-benzyl-1-(cyclobutylmethyl)-5,6,7,8-tetrahydroquinolin-2(1H)-one]
hCB1
  pEC50: < 5.00
hCB2
  hCB2 EC50 class: +B
rCB2
  rCB2 EC50 class: +B

## O=c1c(-c2ccc(C(F)(F)F)cc2)cc2c(n1CC1CCC1)CCNC2 [Compound 39, 3-(4-(trifluoromethyl)phenyl)-1-(cyclobutylmethyl)-5,6,7,8-tetrahydro-1,6-naphthyridin-2(1H)-one]
hCB1
  pEC50: < 5.00
hCB2
  hCB2 EC50 class: +C
rCB2
  rCB2 EC50 class: +C

## O=c1c(-c2cccnc2)cc2c(n1CC1CCC1)CCNC2 [Compound 40, 1-(cyclobutylmethyl)-3-(pyridin-3-yl)-5,6,7,8-tetrahydro-1,6-naphthyridin-2(1H)-one]
hCB1
  pEC50: < 5.00
hCB2
  hCB2 EC50 class: +C
rCB2
  rCB2 EC50 class: +B

## CS(=O)(=O)N1CCc2c(cc(-c3cccc(Cl)c3)c(=O)n2CC2CCC2)C1 [Compound 41, 3-(3-chlorophenyl)-1-(cyclobutylmethyl)-6-(methylsulfonyl)-5,6,7,8-tetrahydro-1,6-naphthyridin-2(1H)-one]
hCB1
  pEC50: < 5.00
hCB2
  hCB2 EC50 class: +A
rCB2
  rCB2 EC50 class: +A

## CC(=O)N1CCc2c(cc(-c3cccc(Cl)c3)c(=O)n2CC2CCC2)C1 [Compound 42, 6-acetyl-3-(3-chlorophenyl)-1-(cyclobutylmethyl)-5,6,7,8-tetrahydro-1,6-naphthyridin-2(1H)-one]
hCB1
  hCB1 EC50 class: +C
hCB2
  hCB2 EC50 class: +A
rCB2
  rCB2 EC50 class: +A

## CS(=O)(=O)N1CCc2c(cc(-c3ccc(C(F)(F)F)cc3)c(=O)n2CC2CCC2)C1 [Compound 43, 1-(cyclobutylmethyl)-6-(methylsulfonyl)-3-(4-(trifluoromethyl)phenyl)-5,6,7,8-tetrahydro-1,6-naphthyridin-2(1H)-one]
hCB1
  pEC50: < 5.00
hCB2
  hCB2 EC50 class: +A
rCB2
  rCB2 EC50 class: +B

## CC(=O)N1CCc2c(cc(-c3ccc(C(F)(F)F)cc3)c(=O)n2CC2CCC2)C1 [Compound 44, 6-acetyl-1-(cyclobutylmethyl)-3-(4-(trifluoromethyl)phenyl)-5,6,7,8-tetrahydro-1,6-naphthyridin-2(1H)-one]
hCB1
  pEC50: < 5.00
hCB2
  hCB2 EC50 class: +B
rCB2
  rCB2 EC50 class: +B

## CC(=O)N1CCc2c(cc(-c3cccnc3)c(=O)n2CC2CCC2)C1 [Compound 46, 6-acetyl-1-(cyclobutylmethyl)-3-(pyridin-3-yl)-5,6,7,8-tetrahydro-1,6-naphthyridin-2(1H)-one]
hCB1
  pEC50: < 5.00
hCB2
  hCB2 EC50 class: +B
rCB2
  rCB2 EC50 class: +B

## CS(=O)(=O)N1CCc2c(cc(-c3cccc(Cl)c3)c(=O)n2CC2CC2)C1 [Compound 48, 3-(3-chlorophenyl)-1-(cyclopropylmethyl)-6-(methylsulfonyl)-5,6,7,8-tetrahydro-1,6-naphthyridin-2(1H)-one]
hCB1
  pEC50: < 5.00
hCB2
  hCB2 EC50 class: +A
rCB2
  rCB2 EC50 class: +A

## CCS(=O)(=O)N1CCc2c(cc(-c3cccc(Cl)c3)c(=O)n2CC2CC2)C1 [Compound 49, 3-(3-chlorophenyl)-1-(cyclopropylmethyl)-6-(ethylsulfonyl)-5,6,7,8-tetrahydro-1,6-naphthyridin-2(1H)-one]
hCB1
  pEC50: < 5.00
hCB2
  hCB2 EC50 class: +B
rCB2
  rCB2 EC50 class: +B
